Test results as given in patent EP0586592B1, “INSULIN AND AMYLIN CONTAINING COMPOSITION FOR THE TREATMENT OF INSULIN DEFICIENT MAMMALS” (AMYLIN PHARMACEUTICALS, INC., priority 1991, dated 2000).

System: rat soleus muscle
Type: cell-based
Details: 4 h
Method: Male Harlan Sprague Dawley rats of approximately 200 g mass were used in order to maintain soleus muscle mass less than 40 mg. The animals were fasted for 4 hours prior to sacrifice by decapitation. The skin was stripped from the lower limb which was then pinned out on cork board. The tendo achilles was cut just above os […]. gastrocnemius reflected out from the posterior aspect of the tibia. M. soleus, a small 15-20 mm long, 0.5 mm thick flat muscle on the bone surface of m. gastrocnemius was then stripped clear and the perimysium cleaned off using fine scissors and forceps. M. soleus was then split into equal parts using a blade passed antero-posteriorly through the belly of the muscle to obtain a total of 4 muscle strips from each animal. […] Methods used to determine the nature and purity of rat and human amylin included quantitative amino acid analysis, gas phase amino acid sequencing, reverse phase HPLC and fast-atom-bombardment mass spectrometry. […] The concentration of human amylin present in the medium at the end of the incubation was determined by radioimmunoassay in surfactant-containing buffer. For both human and rat amylin, the actual mass added to the incubation medium was determined by quantitative amino-acid analysis. […] The remaining glycogen was redissolved in 1 mL water and 4 mL scintillation fluid and counted for ^14C. […]

EC50: 0.438 nM
Compound: CC[C@H](C)[C@H](NC(=O)[C@H](C)NC(=O)CNC(=O)[C@H](Cc1ccccc1)NC(=O)[C@H](CC(N)=O)NC(=O)[C@H](CC(N)=O)NC(=O)[C@H](CO)NC(=O)[C@H](CO)NC(=O)[C@H](Cc1c[nH]cn1)NC(=O)[C@@H](NC(=O)[C@H](CC(C)C)NC(=O)[C@H](Cc1ccccc1)NC(=O)[C@H](CC(N)=O)NC(=O)[C@H](C)NC(=O)[C@H](CC(C)C)NC(=O)[C@H](CCCNC(=N)N)NC(=O)[C@H](CCC(N)=O)NC(=O)[C@@H](NC(=O)[C@H](C)NC(=O)[C@@H]1CSSC[C@H](NC(=O)[C@@H](N)CCCCN)C(=O)N[C@@H](CC(N)=O)C(=O)N[C@@H]([C@@H](C)O)C(=O)N[C@@H](C)C(=O)N[C@@H]([C@@H](C)O)C(=O)N1)[C@@H](C)O)C(C)C)C(=O)N[C@@H](CC(C)C)C(=O)N[C@@H](CO)C(=O)N[C@@H](CO)C(=O)N[C@H](C(=O)N[C@@H](CC(N)=O)C(=O)N[C@H](C(=O)NCC(=O)N[C@@H](CO)C(=O)N[C@@H](CC(N)=O)C(=O)N[C@H](C(=O)N[C@@H](Cc1ccc(O)cc1)C(N)=O)[C@@H](C)O)C(C)C)[C@@H](C)O [human amylin]
